Here are results for eleven compounds from patent US12404262B2 (priority 2021, dated 2025).

SMILES strings stand for the structures.

For the data set the following is noted: 1.0% DMSO, 24-hour incubation at ambient temperature, maximum theoretical 100 μM; for pH 2 solubility: 0.1N HCl, first value of the cell; for pH 7 solubility: 1×PBS buffer (pH 7.4), second value of the cell.

Consider `C[C@@H](OP(=O)(O)O)[C@H](NC(=O)N(c1nn(CC(F)(F)F)c2c(-c3ccc(C#CC(C)(C)S(C)(=O)=O)nc3[C@H](Cc3cc(F)cc(F)c3)NC(=O)Cn3nc(C(F)(F)F)c4c3C(F)(F)[C@@H]3C[C@H]43)ccc(Cl)c12)S(C)(=O)=O)C(=O)O` [Compound 62, N-((4-chloro-7-(2-((S)-1-(2-((3bS,4aR)-5,5-difluoro-3-(trifluoromethyl)-3b,4,4a,5-tetrahydro-1H-cyclopropa[3,4]cyclopenta[1,2-c]pyrazol-1-yl)acetamido)-2-(3,5-difluorophenyl)ethyl)-6-(3-methyl-3-(methylsulfonyl)but-1-yn-1-yl)pyridin-3-yl)-1-(2,2,2-trifluoroethyl)-1H-indazol-3-yl)(methylsulfonyl)carbamoyl)-O-phosphono-L-threonine], for which the “pH 2 solubility” value was 4 μM and the “pH 7 solubility” value was 14 μM.
On to `CC(C)(C#Cc1ccc(-c2ccc(Cl)c3c(N(C(=O)OCCCS(=O)(=O)O)S(C)(=O)=O)nn(CC(F)(F)F)c23)c([C@H](Cc2cc(F)cc(F)c2)NC(=O)Cn2nc(C(F)(F)F)c3c2C(F)(F)[C@@H]2C[C@H]32)n1)S(C)(=O)=O` [Compound 111, 3-(((4-chloro-7-(2-((S)-1-(2-((3bS,4aR)-5,5-difluoro-3-(trifluoromethyl)-3b,4,4a,5-tetrahydro-1H-cyclopropa[3,4]cyclopenta[1,2-c]pyrazol-1-yl)acetamido)-2-(3,5-difluorophenyl)ethyl)-6-(3-methyl-3-(methylsulfonyl)but-1-yn-1-yl)pyridin-3-yl)-1-(2,2,2-trifluoroethyl)-1H-indazol-3-yl)(methylsulfonyl)carbamoyl)oxy)propane-1-sulfonic acid], for which the “pH 2 solubility” value was found to be 33 μM and the “pH 7 solubility” value is given as 42 μM.
For the compound `CC(C)(C#Cc1ccc(-c2ccc(Cl)c3c(N(C(=O)OCCOP(=O)(O)O)S(C)(=O)=O)nn(CC(F)(F)F)c23)c([C@H](Cc2cc(F)cc(F)c2)NC(=O)Cn2nc(C(F)(F)F)c3c2C(F)(F)[C@@H]2C[C@H]32)n1)S(C)(=O)=O` [Compound 100, 2-(phosphonooxy)ethyl (4-chloro-7-(2-((S)-1-(2-((3bS,4aR)-5,5-difluoro-3-(trifluoromethyl)-3b,4,4a,5-tetrahydro-1H-cyclopropa[3,4]cyclopenta[1,2-c]pyrazol-1-yl)acetamido)-2-(3,5-difluorophenyl)ethyl)-6-(3-methyl-3-(methylsulfonyl)but-1-yn-1-yl)pyridin-3-yl)-1-(2,2,2-trifluoroethyl)-1H-indazol-3-yl)(methylsulfonyl)carbamate], the “pH 2 solubility” value was 2 μM and the “pH 7 solubility” value is 100 μM.
The corresponding values for `C[C@H](O)CNC(=O)N(c1nn(CC(F)(F)F)c2c(-c3ccc(C#CC(C)(C)S(C)(=O)=O)nc3[C@H](Cc3cc(F)cc(F)c3)NC(=O)Cn3nc(C(F)(F)F)c4c3C(F)(F)[C@@H]3C[C@H]43)ccc(Cl)c12)S(C)(=O)=O` [Compound 34, N—((S)-1-(3-(4-chloro-3-(N—(((S)-2-hydroxypropyl)carbamoyl)methylsulfonamido)-1-(2,2,2-trifluoroethyl)-1H-indazol-7-yl)-6-(3-methyl-3-(methylsulfonyl)but-1-yn-1-yl)pyridin-2-yl)-2-(3,5-difluorophenyl)ethyl)-2-((3bS,4aR)-5,5-difluoro-3-(trifluoromethyl)-3b,4,4a,5-tetrahydro-1H-cyclopropa[3,4]cyclopenta[1,2-c]pyrazol-1-yl)acetamide] are 1 μM and 4 μM.
The matching figures for `COC(=O)N(c1nn(CC(F)(F)F)c2c(-c3ccc(C#CC(C)(C)S(C)(=O)=O)nc3[C@H](Cc3cc(F)cc(F)c3)NC(=O)Cn3nc(C(F)(F)F)c4c3C(F)(F)[C@@H]3C[C@H]43)ccc(Cl)c12)S(C)(=O)=O` [Compound 89, methyl (4-chloro-7-(2-((S)-1-(2-((3bS,4aR)-5,5-difluoro-3-(trifluoromethyl)-3b,4,4a,5-tetrahydro-1H-cyclopropa[3,4]cyclopenta[1,2-c]pyrazol-1-yl)acetamido)-2-(3,5-difluorophenyl)ethyl)-6-(3-methyl-3-(methylsulfonyl)but-1-yn-1-yl)pyridin-3-yl)-1-(2,2,2-trifluoroethyl)-1H-indazol-3-yl)(methylsulfonyl)carbamate]: 3/3 μM and 3/3 μM.
With `CC(C)(CNC(=O)N(c1nn(CC(F)(F)F)c2c(-c3ccc(C#CC(C)(C)S(C)(=O)=O)nc3[C@H](Cc3cc(F)cc(F)c3)NC(=O)Cn3nc(C(F)(F)F)c4c3C(F)(F)[C@@H]3C[C@H]43)ccc(Cl)c12)S(C)(=O)=O)OP(=O)(O)O` [Compound 33, 1-(3-(4-chloro-7-(2-((S)-1-(2-((3bS,4aR)-5,5-difluoro-3-(trifluoromethyl)-3b,4,4a,5-tetrahydro-1H-cyclopropa[3,4]cyclopenta[1,2-c]pyrazol-1-yl)acetamido)-2-(3,5-difluorophenyl)ethyl)-6-(3-methyl-3-(methylsulfonyl)but-1-yn-1-yl)pyridin-3-yl)-1-(2,2,2-trifluoroethyl)-1H-indazol-3-yl)-3-(methylsulfonyl)ureido)-2-methylpropan-2-yl dihydrogen phosphate], the “pH 2 solubility” value is reported as 6 μM and the “pH 7 solubility” value is on record as 16 μM.
For `CC(C)(C#Cc1ccc(-c2ccc(Cl)c3c(N(C(=O)OCCCCOP(=O)(O)O)S(C)(=O)=O)nn(CC(F)(F)F)c23)c([C@H](Cc2cc(F)cc(F)c2)NC(=O)Cn2nc(C(F)(F)F)c3c2C(F)(F)[C@@H]2C[C@H]32)n1)S(C)(=O)=O` [Compound 102, 4-(phosphonooxy)butyl (4-chloro-7-(2-((S)-1-(2-((3bS,4aR)-5,5-difluoro-3-(trifluoromethyl)-3b,4,4a,5-tetrahydro-1H-cyclopropa[3,4]cyclopenta[1,2-c]pyrazol-1-yl)acetamido)-2-(3,5-difluorophenyl)ethyl)-6-(3-methyl-3-(methylsulfonyl)but-1-yn-1-yl)pyridin-3-yl)-1-(2,2,2-trifluoroethyl)-1H-indazol-3-yl)(methylsulfonyl)carbamate], the “pH 2 solubility” value is reported as 1 μM and the “pH 7 solubility” value was determined as 100 μM.
For `CC(C)(C#Cc1ccc(-c2ccc(Cl)c3c(N(C(=O)OCCC(=O)O)S(C)(=O)=O)nn(CC(F)(F)F)c23)c([C@H](Cc2cc(F)cc(F)c2)NC(=O)Cn2nc(C(F)(F)F)c3c2C(F)(F)[C@@H]2C[C@H]32)n1)S(C)(=O)=O` [Compound 121, 3-(((4-chloro-7-(2-((S)-1-(2-((3bS,4aR)-5,5-difluoro-3-(trifluoromethyl)-3b,4,4a,5-tetrahydro-1H-cyclopropa[3,4]cyclopenta[1,2-c]pyrazol-1-yl)acetamido)-2-(3,5-difluorophenyl)ethyl)-6-(3-methyl-3-(methylsulfonyl)but-1-yn-1-yl)pyridin-3-yl)-1-(2,2,2-trifluoroethyl)-1H-indazol-3-yl)(methylsulfonyl)carbamoyl)oxy)propanoic acid], the “pH 2 solubility” value is 1 μM and the “pH 7 solubility” value was 21 μM.
The matching figures for `C[C@H](N)C(=O)OCN(c1nn(CC(F)(F)F)c2c(-c3ccc(C#CC(C)(C)S(C)(=O)=O)nc3[C@H](Cc3cc(F)cc(F)c3)NC(=O)Cn3nc(C(F)(F)F)c4c3C(F)(F)[C@@H]3C[C@H]43)ccc(Cl)c12)S(C)(=O)=O` [Compound 27, (N-(4-chloro-7-(2-((S)-1-(2-((3bS,4aR)-5,5-difluoro-3-(trifluoromethyl)-3b,4,4a,5-tetrahydro-1H-cyclopropa[3,4]cyclopenta[1,2-c]pyrazol-1-yl)acetamido)-2-(3,5-difluorophenyl)ethyl)-6-(3-methyl-3-(methylsulfonyl)but-1-yn-1-yl)pyridin-3-yl)-1-(2,2,2-trifluoroethyl)-1H-indazol-3-yl)methylsulfonamido)methyl L-alaninate]: 20 μM and 2 μM.
The corresponding values for `CC(C)(C#Cc1ccc(-c2ccc(Cl)c3c(N(C(=O)O[C@@H](CC(=O)O)C(=O)O)S(C)(=O)=O)nn(CC(F)(F)F)c23)c([C@H](Cc2cc(F)cc(F)c2)NC(=O)Cn2nc(C(F)(F)F)c3c2C(F)(F)[C@@H]2C[C@H]32)n1)S(C)(=O)=O` [Compound 119, (S)-2-(((4-chloro-7-(2-((S)-1-(2-((3bS,4aR)-5,5-difluoro-3-(trifluoromethyl)-3b,4,4a,5-tetrahydro-1H-cyclopropa[3,4]cyclopenta[1,2-c]pyrazol-1-yl)acetamido)-2-(3,5-difluorophenyl)ethyl)-6-(3-methyl-3-(methylsulfonyl)but-1-yn-1-yl)pyridin-3-yl)-1-(2,2,2-trifluoroethyl)-1H-indazol-3-yl)(methylsulfonyl)carbamoyl)oxy)succinic acid] are 1/1 μM and 1/1 μM.
The matching figures for `CC(C)[C@H](N)C(=O)OCN(c1nn(CC(F)(F)F)c2c(-c3ccc(C#CC(C)(C)S(C)(=O)=O)nc3[C@H](Cc3cc(F)cc(F)c3)NC(=O)Cn3nc(C(F)(F)F)c4c3C(F)(F)[C@@H]3C[C@H]43)ccc(Cl)c12)S(C)(=O)=O` [Compound 28, (N-(4-chloro-7-(2-((S)-1-(2-((3bS,4aR)-5,5-difluoro-3-(trifluoromethyl)-3b,4,4a,5-tetrahydro-1H-cyclopropa[3,4]cyclopenta[1,2-c]pyrazol-1-yl)acetamido)-2-(3,5-difluorophenyl)ethyl)-6-(3-methyl-3-(methylsulfonyl)but-1-yn-1-yl)pyridin-3-yl)-1-(2,2,2-trifluoroethyl)-1H-indazol-3-yl)methylsulfonamido)methyl L-valinate]: 29 μM and 1 μM.
